Test results taken from ChEMBL document CHEMBL1155466, “Structure-activity relationships of 6-methyl-benzo[b]thiophene-2-carboxylic acid (1-[(S)-1-benzyl-4-[4-(tetrahydropyran-4-ylmethyl)piperazin-1-yl]butylcarbamoyl]cyclopentyl)amide, potent antagonist of the neurokinin-2 receptor” (J Med Chem, 2010).
Activity calls are given as the source filed them. The rule behind the calls is not given here.

Legend:
[1] = Apparent permeability from apical to basolateral side of human Caco-2 cells at 100 uM
Homo sapiens = assay: Inhibition of [beta-Ala8]NKA(4-10)-induced colonic contractions […] at 10 umol/kg, id relative to control; format: functional, organism-based
Cavia porcellus = assay: Inhibition of [beta-Ala8]NKA(4-10)-induced colonic contractions in Dunkin-Hartley guinea pig at 3 umol/kg, iv after 4 hrs relative to control; format: functional
Substance-K receptor [2] = biological target: T1, Substance-K receptor (Homo sapiens, UniProt P21452); assay: Antagonist activity at NK2 receptor in human urinary bladder assessed as inhibition of [beta-Ala8]NKA(4-10)-induced tissue contractions; format: functional; conditions: read-out: pA2 (converted)
T1 sequence (P21452 whole entry): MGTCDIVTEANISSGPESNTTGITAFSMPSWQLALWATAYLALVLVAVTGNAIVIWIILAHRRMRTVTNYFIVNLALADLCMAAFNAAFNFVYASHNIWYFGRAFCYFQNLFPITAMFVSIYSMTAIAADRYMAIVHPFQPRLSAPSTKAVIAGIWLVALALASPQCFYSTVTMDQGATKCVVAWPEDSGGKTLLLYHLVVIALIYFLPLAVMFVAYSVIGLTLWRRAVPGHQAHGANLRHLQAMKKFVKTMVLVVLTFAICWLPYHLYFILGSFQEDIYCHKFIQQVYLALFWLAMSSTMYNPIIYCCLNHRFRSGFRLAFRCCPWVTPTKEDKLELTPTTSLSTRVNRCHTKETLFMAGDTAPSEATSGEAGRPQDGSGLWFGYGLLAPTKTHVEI

[3] = biological target: T2, Substance-K receptor (Cavia porcellus) (UniProt Q64077); assay: Antagonist activity at NK2 receptor in Dunkin-Hartley guinea pig colon smooth muscle assessed as inhibition of [beta-Ala8]NKA(4-10)-induced tissue contraction in presence of NK1 receptor antagonist SR-140333; format: functional, tissue-based
T2 sequence (whole entry): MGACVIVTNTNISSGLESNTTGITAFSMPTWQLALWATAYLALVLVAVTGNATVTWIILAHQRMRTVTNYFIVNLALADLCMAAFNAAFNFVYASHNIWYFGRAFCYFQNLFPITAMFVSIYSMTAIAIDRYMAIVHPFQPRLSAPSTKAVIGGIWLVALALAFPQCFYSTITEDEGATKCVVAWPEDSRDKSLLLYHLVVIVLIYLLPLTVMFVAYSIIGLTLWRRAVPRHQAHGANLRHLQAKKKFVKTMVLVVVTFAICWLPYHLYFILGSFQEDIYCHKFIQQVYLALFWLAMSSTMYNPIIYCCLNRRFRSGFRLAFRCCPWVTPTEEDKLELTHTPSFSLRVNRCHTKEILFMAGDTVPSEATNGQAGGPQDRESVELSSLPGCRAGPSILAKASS

Substance-K receptor [4] = biological target: T1, Substance-K receptor; assay: Displacement of [3H]neurokinin A from human NK2 receptor

Cc1ccc2cc(C(=O)NC3(C(=O)N[C@@H](CCCN4CCN(CC5CCOCC5)CC4)Cc4ccccc4)CCCC3)sc2c1
Papp A→B at 100 µM [1]: 11.2 ×10⁻⁶ cm/s | Activity (Homo sapiens): Active | Imax (Cavia porcellus): 100% | Kb (Substance-K receptor [2]): 0.2 nM | pKb [3]: 8.6

COc1ccc2oc(C(=O)NC3(C(=O)N[C@@H](CCCN4CCN(CC5CCOCC5)CC4)Cc4ccccc4)CCCC3)cc2c1
Papp A→B at 100 µM [1]: 8.6 ×10⁻⁶ cm/s | Imax (Cavia porcellus): 98% | Ki (Substance-K receptor [4]): 0.631 nM | pKb [3]: 7.4

O=C(NC1(C(=O)N[C@@H](CCCN2CCN(CC3CCOCC3)CC2)Cc2ccccc2)CCCC1)c1cc2ccccc2o1
Papp A→B at 100 µM [1]: 20.2 ×10⁻⁶ cm/s | Imax (Cavia porcellus): 65% | Ki (Substance-K receptor [4]): 0.631 nM | pKb [3]: 8.2
